Earlier results in patent publication US11596701B2, “Disinfection method using a disinfection agent formed in situ by reaction of H2O2 and NO2-” (LEIBNIZ-INSTITUT FÜR PLASMAFORSCHUNG UND TECHNOLOGIE E.V., priority 2018, dated 2023).
Read-outs that look alike come from different tables or passages of the source.

Details: room temperature

Q: With peroxynitric acid as the substance, how does the half-life (Lammel et al., 1990) read?
A: about 3 minutes

Q: And the half-life (as stated in US 20170172149)?
A: about 10 minutes
